According to patent US8283322B2, “Formulations for nonsurgical exogenous crosslink therapy” (Orthopeutics, LP, priority 2008, dated 2012):

Experiments:
[1] = tested on: lumbar intervertebral joints (posterior annulus); test: Indentation testing (stress relaxation, hardness) with compression/flexion fatigue cycling; conditions: soaking the calf disc tissue in 0.33% concentration of genipin
Excerpt: Thirty-three lumbar intervertebral joints were obtained from ten four-month-old calf spines. The intervertebral joints were arbitrarily divided into 3 groups: untreated controls-12 specimens, Genipin treatment 1 (G1)-6 specimens, and Genipin treatment 2 (G2)-13 specimens. The G1 treatment involved 72 hrs of soaking the whole specimen in PBS with a 0.033% concentration of Genipin. Similarly, the G2 treatment involved 72 hrs of soaking whole specimens in PBS with 0.33% concentration of Genipin. 0.33% Genipin in PBS is produced by dilution of 50 ml of 10×. PBS (Phosphate Buffered Saline) with distilled water by a factor of 10 to give 500 ml (500 gm) of PBS and mixing in 1.65 grams of genipin to produce the 0.33% (wt %, gm/gm) solution. […] Some controls were not subjected to soaking prior to fatigue testing. Others were soaked in a saline solution for 72 hrs. Water mass loss experiments were conducted to establish the equivalency of outer annulus hydration between the genipin soaked and 0.9% saline soaked controls. The selection of treatments was randomized by spine and level. […]
Following initial indentation testing, the specimen was loaded repetitively in flexion-compression at 200 N for 3000 cycles at a rate of 0.25 Hz. […] Several statistical measures were calculated to evaluate the significance of the results. […]

[2] = tested on: calf intervertebral discs; test: Hydration change / fluid flux of disc regions (soaking, creep loading, resoaking); design: species or system calf (4 month-old bovine); conditions: for % increase by Genipin, NP: flux into and out of the central nucleus region vs control flux
Excerpt: By measuring the change in hydration of different regions of the intervertebral disc (nucleus pulposus, inner annulus, and outer annulus fibrosus) prior to and after periods of soaking, sustained compressive loading, and resoaking, the fluid flux to and from different regions can be determined. By comparing these measurements between control discs and discs treated with crosslinking reagents known to have minimal cytotoxicity, we see the effect of crosslinking treatment on fluid flux and permeability. A total of 24 calf (4 month-old bovine) intervertebral discs were used for this study. Water content of three different areas of the […] tissue were tested-the nucleus pulposus, inner annulus fibrosus and outer annulus fibrosus. Hydration change was determined by weighing the specimen using a micro-balance (sensitivity: 0.1 mg). Water content (M) was calculated as: M=(Wet Weight-Dry Weight)/Wet Weight=g H2O/g Wet Weight The drying procedure consisted of putting the specimens in the oven with a controlled temperature of 90° C. for 24 hrs. The specimens were separated into four tests: • 1. Group A: Three specimens were in this group. It served as a control group. The specimens were soaked in PBS (phosphate buffered saline) for 1 day and then the hydration analysis was performed. • 2. Group B1: Four specimens were in this group. In addition to the one day PBS soaking, the specimens soaked in PBS for 2 more days as a control and then the hydration analysis was performed. • Group B2: Five specimens were in this group. In addition to the one day PBS soaking, the specimens were soaked in 0.33% genipin solution for 2 days and then the hydration analysis was performed. • 3. In group C, a small daytime amount of constant compressive loading (creep) was simulated. • C1: Three specimens were in this group. The specimens were soaked in PBS for 3 days and then […] of compression was applied by a materials testing machine for 1 hour. The disc was compressed in a 5 degree of flexion posture produced by two rollers attached to the loading ram of the materials testing machine. The hydration analysis was performed immediately after the creep loading. • C2: Three specimens were in this group. The specimens were soaked in 0.33% Genipin solution for 2 days after 1 day of PBS soaking and performed identical creep loading with […] compressive load. The hydration analysis was performed immediately after the creep loading. • 4. In group D, the imbibition of water following a period of compressive loading that typically occurs in the night time as a person is in a recumbent posture was simulated. • D1: The specimens were soaked in PBS solution for 3 days and then 1 hr of creep loading at […] was applied. After the creep loading, the specimens were placed in a container in 1 PBS for one more day followed by the hydration analysis. • D2: Three specimens were included and were soaked in 0.33% genipin solution for 2 days after one day of PBS soaking. A creep load of […] for 1 hr was then applied. The specimens were put in PBS for another day followed by the hydration analysis.

[3] = tested on: homogenized annulus tissue; conditions: bovine
Description: (§1) Increasing concentrations of protein crosslinkers were added to homogenized annulus tissue and incubated for either 1 hr (EDC, GP, MG, PA and GA), 2 hrs (TG) or 6 hrs (DT and LT). Crosslinking was quantified by determining the amount of hydroxyproline (HYP) released from the tissue by collagenase digestion.
(§2) Homogenized annulus tissue was treated with sub-saturating concentrations of various crosslinkers at varying pH and incubated for either 1 hr (EDC, GP, MG, PA and GA), 2 hrs (TG) or 6 hrs (LT). Crosslinking was quantified by determining the amount of hydroxyproline (HYP) released from the tissue by collagenase digestion.
(§3) In order to determine the effective concentration range for various crosslinking reagents we incubated samples of annulus tissue in increasing concentrations of either genipin (GP), methylglyoxal (MG), proanthrocyanidin (PA), L-threose (LT), D-threose (DT), dimethylaminopropyl) carbodiimide hydrochloride (EDC) or transglutaminase (TG). Crosslinking efficiency was measured indirectly by monitoring the release of peptides containing hydroxyproline upon subsequent digestion with collagenase. Glutaraldehyde (GA), a commonly used, but highly toxic protein crosslinker was used as a positive control.
(§4) To test this hypothesis, the inventors subjected calf annulus fibrosus tissue to crosslinking with sub-saturating levels of our reagents at varying pH. In order to maintain optimal buffering capacity at each pH, different buffers were selected for each point.

[4] = tested on: homogenized annulus tissue; test: Crosslinking of annulus tissue quantified by hydroxyproline release upon collagenase digestion
Description: as §1, §2, §3, §4

[5] = combined fluid flow out (creep) and in (resoaking)

- Genipin Flux, Inner AF [2, 5]: 0.1008
- Genipin Flux, NP [2, 5]: 0.04983
- Genipin Flux, Outer AF [2, 5]: 0.05294
- T1/2 [3]: 10 to 18 min
- effect of phosphate on crosslinking ([4]; Tris buffer pH 8, increasing concentrations of sodium phosphate): dose-dependent enhancement
SMILES: COC(=O)C1=CO[C@@H](O)[C@@H]2C(CO)=CC[C@H]12 [Genipin, genipin]
- reduction in viscoelastic degradation [1]: More than a three-fold reduction
- % increase by Genipin, NP [2]: 63.7%
- % increase by Genipin, NP ([2]; listed as genipin): 64%
- % increase by Genipin, Inner AF ([2]; flux vs control flux): 17.3%
- % increase by Genipin, Outer AF ([2]; flux vs control flux): 5.7%
- effect of buffer (EPPS vs Tris) on crosslinking ([4]; 100 mM EPPS or 100 mM Tris, GP at pH 9): more effective in EPPS buffer than in Tris
- pH ([4]; optimized pH for crosslinking, Table 5): 8-9
- [Saturating] ([4]; saturating crosslinker concentration, Table 5): 5 to 10 mM
- pH dependence of crosslinking ([4]; sub-saturating crosslinker, pH 4-9 with a different buffer at each pH (FIG. 2, FIG. 3)): function better in disc tissue at the higher pH levels
